In patent US20080129961A1, “METHOD AND APPARATUS FOR MEASURING QUANTITY OF A FLUOROCHROME IN A BIOLOGICAL ENVIRONMENT” (priority 2006, published 2008):

How the values were obtained:
[1] = Solubility and fluorescence behaviour of ICG in serum and vitreous humor
Experimental: ICG (Acros Organics, Fair Lawn, N.J.) was dissolved in PBS, pH 7.4, with 0.1% Tween 20 at 25° C. to make the aqueous standards. Fluorescence of a series of 1:2 dilutions were made with a spectrofluorometer beginning with a maximum concentration of 100 ng/ml down to a “blank” comprising PBS, pH 7.4, with 0.1% Tween with essentially no ICG (only trace amounts).

[2] = pH stability of ICG emission intensity; type: physicochemical

solubility in serum and vitreous humor after pre-dissolution ([1]; first dissolved in PBS, pH 7.4, 0.1% Tween 20 (≧1000 ng/ml), then mixed with bovine vitreous humor or human serum): remain in solution
spectra and quantum yield in serum and vitreous humor compared to ICG in PBS with 0.1% Tween 20 ([1]; first dissolved in PBS, pH 7.4, 0.1% Tween 20, then mixed with bovine vitreous humor or human serum): maintain its spectra and quantum yield
solubility when mixed directly with serum or vitreous humor ([1]; mixed directly with serum or vitreous humor): not completely soluble
pH range across which emission intensity is stable [2]: 5-10 pH
SMILES: CC1(C)C(/C=C/C=C/C=C/C=C2\N(CCCCS(=O)(=O)[O-])c3ccc4ccccc4c3C2(C)C)=[N+](CCCCS(=O)(=O)[O-])c2ccc3ccccc3c21.[Na+] [ICG, indocyanin green]
